14 compounds from patent US11919901B2 (Syndax Pharmaceuticals, Inc., priority 2021, dated 2024) can be followed below.

Read-outs that look alike come from different tables or passages of the source.

One assay relates to MV4-11 cells. Nature of the assay: Cell proliferation assay MV4;11 (CellTiter-Glo, 72 hours). To be noted: Homo sapiens, read-out: MV4. The format is cell-based. The method, boiled down:
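Luminescent CellTiter-Glo readout after 72 h culture, 37 °C, 5% CO2, expressed relative to vehicle-treated wells, with maximal inhibition taken at the highest dose. MLL-rearranged MV4-11 leukemia cells; final compound range 0.632 to 2000 nM in eight steps.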
On the technique in general: ATP-based viability assays read luminescence as a measure of living cells.

Assay [1] has as its target human Menin and N-terminal portion of human MLL (amino acids 4-43) (Homo sapiens (Human), UniProt O00255). Briefly: Menin-MLL competition assay (HTRF). The format is binding. To be noted: 1 hr incubation. From the text: Menin-MLL is a competition assay between human Menin and N-terminal portion of human MLL representing amino acids 4-43 of the protein. The interaction between Menin and MLL peptide was monitored by HTRF employing Terbium labeled anti-His6 antibody directed to the N-terminal His6-tag on recombinant Menin and FITC group covalently attached to the MLL peptide. The N-terminal fragment of MLL, retained in all MLL fusion proteins, is involved in the interactions with Menin, and this protein-protein interaction is critical for the MLL fusion proteins mediated leukemogenic transformations.
For IC50 determination test compounds were prepared as 10 mM DMSO stock solutions. Considering DMSO as the vehicle in the assay system. Lower sub-stocks of 50 μM were prepared from the 10 mM stock solution. To test the compounds in assay, 3.16-fold serial dilutions are made in 100% DMSO. Mid-stock of 50× compounds (50 μM) were serially diluted (3.16 fold) in 100% DMSO in Polypropylene plate. In assay plate 1 micro-litre of the previously prepared compound dilution was stamped. H-FL-Menin diluted to 4 nM in assay buffer (50 mM Tris-HCl, pH 7.4, 50 mM NaCl, freshly prepared 1 mM DTT, 0.01% BSA, 0.005% Triton X-100) was pre-incubated with 8 nM anti-His6-Tb for 30 min at room temperature. […]
Background: TR-FRET usually uses a lanthanide donor and a delayed reading to cut background.

Where [2] appears, read: MV4;11 leukemia cell line, 72 hours, 11 IC50.

human Menin and N-terminal portion of human MLL (amino acids 4-43), sequence (O00255 whole entry, the tested form may be a part): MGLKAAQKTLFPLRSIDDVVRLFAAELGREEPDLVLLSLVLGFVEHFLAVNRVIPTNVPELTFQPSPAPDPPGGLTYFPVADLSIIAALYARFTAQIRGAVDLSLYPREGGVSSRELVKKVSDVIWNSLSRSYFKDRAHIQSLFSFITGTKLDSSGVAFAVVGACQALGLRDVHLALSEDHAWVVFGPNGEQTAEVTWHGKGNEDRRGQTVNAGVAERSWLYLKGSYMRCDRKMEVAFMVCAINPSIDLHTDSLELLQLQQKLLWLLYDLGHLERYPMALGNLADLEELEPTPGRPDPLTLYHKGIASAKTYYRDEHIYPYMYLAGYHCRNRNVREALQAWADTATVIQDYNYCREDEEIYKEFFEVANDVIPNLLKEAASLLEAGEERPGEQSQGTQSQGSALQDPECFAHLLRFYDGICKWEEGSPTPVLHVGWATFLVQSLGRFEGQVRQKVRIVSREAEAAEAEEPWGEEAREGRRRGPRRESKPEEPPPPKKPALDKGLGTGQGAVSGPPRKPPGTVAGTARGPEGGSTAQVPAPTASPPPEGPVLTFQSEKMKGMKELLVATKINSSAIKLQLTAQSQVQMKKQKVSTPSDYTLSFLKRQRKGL

Turning to `CC(C)N(C(=O)c1cc(F)ccc1Oc1cncnc1N1CC2(CCN(C[C@@H]3CC[C@@H](NS(=O)(=O)N(C)C)CO3)CC2)C1)[C@H]1CCOC1` [Example 177, 2-((4-(7-(((2S,5R)-5-((N,N-Dimethylsulfamoyl)amino)tetrahydro-2H-pyran-2-yl)methyl)-2,7-diazaspiro[3.5]nonan-2-yl)pyrimidin-5-yl)oxy)-5-fluoro-N-isopropyl-N-((S)-tetrahydrofuran-3-yl)benzamide], the IC50 with MV4-11 cells (setting [2]) is < 100 nM.
On the same count and under the same terms, the same measure for `CC(C)N(CC(F)F)C(=O)c1cc(F)ccc1Oc1cncnc1N1CC2(CCN(C[C@@H]3CC[C@@H](NS(N)(=O)=O)CO3)CC2)C1` [Example 240, N-(2,2-Difluoroethyl)-5-fluoro-N-isopropyl-2-((4-(7-(((2S,5R)-5-(sulfamoylamino)tetrahydro-2H-pyran-2-yl)methyl)-2,7-diazaspiro[3.5]nonan-2-yl)pyrimidin-5-yl)oxy)benzamide]: < 100 nM.
The same measure, in the same setting: the same measure for `CCN(C(=O)c1cc(F)ccc1Oc1cncnc1N1CC2(CCN(C[C@@H]3CC[C@@H](NS(=O)(=O)c4ccccc4C)CO3)CC2)C1)C(C)C` [Example 56, N-Ethyl-5-fluoro-N-isopropyl-2-((4-(7-(((2S,5R)-5-((2-methylphenyl)sulfonamido)tetrahydro-2H-pyran-2-yl)methyl)-2,7-diazaspiro[3.5]nonan-2-yl)pyrimidin-5-yl)oxy)benzamide]: < 100 nM; for `C[C@@H]1COC[C@@H](C)N1C(=O)c1cc(F)ccc1Oc1cncnc1N1CC2(CCN(C[C@@H]3CC[C@@H](NS(=O)(=O)NCC(F)(F)F)CO3)CC2)C1` [Example 157, {[(3R,6S)-6-{[2-(5-{2-[(3R,5R)-3,5-Dimethylmorpholine-4-carbonyl]-4-fluorophenoxy}pyrimidin-4-yl)-2,7-diazaspiro[3.5]nonan-7-yl]methyl}oxan-3-yl]sulfamoyl}(2,2,2-trifluoroethyl)amine]: < 100 nM.
In the case of `CCN(C(=O)c1cc(F)ccc1Oc1cncnc1N1CC2(CCN(C[C@@H]3CC[C@@H](NS(=O)(=O)c4cccnc4)CO3)CC2)C1)C(C)C` [Example 63, N-Ethyl-5-fluoro-N-isopropyl-2-((4-(7-(((2S,5R)-5-(pyridine-3-sulfonamido)tetrahydro-2H-pyran-2-yl)methyl)-2,7-diazaspiro[3.5]nonan-2-yl)pyrimidin-5-yl)oxy)benzamide], the IC50 in the assay on MV4-11 cells (setting [2]) was < 100 nM.
`CCS(=O)(=O)N[C@@H]1CC[C@@H](CN2CCC3(CC2)CN(c2ncncc2Oc2ccc(F)cc2C(=O)N(CC(F)F)C(C)C)C3)OC1` [Example 34, N-(2,2-Difluoroethyl)-2-((4-(7-(((2S,5R)-5-(ethylsulfonamido)tetrahydro-2H-pyran-2-yl)methyl)-2,7-diazaspiro[3.5]nonan-2-yl)pyrimidin-5-yl)oxy)-5-fluoro-N-isopropylbenzamide]: the IC50 with MV4-11 cells (setting [2]) was < 100 nM.
The same measure, in the same setting: with `CC(C)N(CC(F)F)C(=O)c1cc(F)ccc1Oc1cncnc1N1CC2(CCN(C[C@@H]3CC[C@@H](NS(=O)(=O)NCC4CC4)CO3)CC2)C1` [Example 148, 2-((4-(7-(((2S,5R)-5-((N-(Cyclopropylmethyl)sulfamoyl)amino)tetrahydro-2H-pyran-2-yl)methyl)-2,7-diazaspiro[3.5]nonan-2-yl)pyrimidin-5-yl)oxy)-N-(2,2-difluoroethyl)-5-fluoro-N-isopropylbenzamide] the figure was < 100 nM; with `CC(C)N(C(=O)c1cc(F)ccc1Oc1cncnc1N1CC2(CCN(C[C@@H]3CC[C@@H](NS(=O)(=O)N4CCOCC4)CO3)CC2)C1)C1CC(F)(F)C1` [Example 116, N-(3,3-Difluorocyclobutyl)-5-fluoro-N-isopropyl-2-((4-(7-(((2S,5R)-5-(morpholine-4-sulfonamido)tetrahydro-2H-pyran-2-yl)methyl)-2,7-diazaspiro[3.5]nonan-2-yl)pyrimidin-5-yl)oxy)benzamide], < 100 nM.
With `CC(C)N(CC(F)F)C(=O)c1cc(F)ccc1Oc1cncnc1N1CC2(CCN(C[C@@H]3CC[C@@H](NS(=O)(=O)N4CCOCC4)CO3)CC2)C1` [Example 94, N-(2,2-Difluoroethyl)-5-fluoro-N-isopropyl-2-((4-(7-(((2S,5R)-5-(morpholine-4-sulfonamido)tetrahydro-2H-pyran-2-yl)methyl)-2,7-diazaspiro[3.5]nonan-2-yl)pyrimidin-5-yl)oxy)benzamide], in the assay with MV4-11 cells (setting [2]), the IC50 is < 100 nM.
On the same count and under the same terms, with `CCS(=O)(=O)N[C@@H]1CC[C@@H](CN2CCC3(CC2)CN(c2ncncc2Oc2ccc(F)cc2C(=O)N2[C@H](C)CCC[C@@H]2C)C3)OC1` [Example 36, N-((3R,6S)-6-((2-(5-(2-((2S,6R)-2,6-Dimethylpiperidine-1-carbonyl)-4-fluorophenoxy)pyrimidin-4-yl)-2,7-diazaspiro[3.5]nonan-7-yl)methyl)tetrahydro-2H-pyran-3-yl)ethanesulfonamide] the figure was < 100 nM.
Consider `CCN(C(=O)c1cc(F)ccc1Oc1cncnc1N1CC2(CCN(C[C@H]3CC[C@H](NS(=O)(=O)CC)CO3)CC2)C1)C(C)C` [Example 52, N-Ethyl-2-((4-(7-(((2R,5S)-5-(ethylsulfonamido)tetrahydro-2H-pyran-2-yl)methyl)-2,7-diazaspiro[3.5]nonan-2-yl)pyrimidin-5-yl)oxy)-5-fluoro-N-isopropylbenzamide], for which the IC50 is < 100 nM in assay [1] and 100 to 1000 nM with MV4-11 cells (setting [2]).
With `C[C@@H]1COC[C@@H](C)N1C(=O)c1cc(F)ccc1Oc1cncnc1N1CC2(CCN(C[C@@H]3CC[C@@H](NS(=O)(=O)NC4CC4)CO3)CC2)C1` [Example 159, N-[(3R,6S)-6-{[2-(5-{2-[(3R,5R)-3,5-Dimethylmorpholine-4-carbonyl]-4-fluorophenoxy}pyrimidin-4-yl)-2,7-diazaspiro[3.5]nonan-7-yl]methyl}oxan-3-yl](cyclopropylamino)sulfonamide], the IC50 in the assay with MV4-11 cells (setting [2]) was < 100 nM.
Still for that read-out and setting: the same measure for `CC(C)N(C(=O)c1cc(F)ccc1Oc1cncnc1N1CC2(CCN(C[C@@H]3CC[C@@H](NS(=O)(=O)N4CC5(CCO5)C4)CO3)CC2)C1)C(C)C` [Example 221, 2-((4-(7-(((2S,5R)-5-(1-Oxa-6-azaspiro[3.3]heptane-6-sulfonamido)tetrahydro-2H-pyran-2-yl)methyl)-2,7-diazaspiro[3.5]nonan-2-yl)pyrimidin-5-yl)oxy)-5-fluoro-N,N-diisopropylbenzamide]: < 100 nM.
As for `CCS(=O)(=O)N[C@@H]1CC[C@@H](CN2CCC3(CC2)CN(c2ncncc2Oc2ccc(F)cc2C(=O)N(C[C@@H](O)CO)C(C)C)C3)OC1` [Example 255, N-((R)-2,3-Dihydroxypropyl)-2-((4-(7-(((2S,5R)-5-(ethylsulfonamido)tetrahydro-2H-pyran-2-yl)methyl)-2,7-diazaspiro[3.5]nonan-2-yl)pyrimidin-5-yl)oxy)-5-fluoro-N-isopropylbenzamide], the IC50 in the assay with MV4-11 cells (MV4-11, 72 h, 11 IC50 (nM)) fell in the range of 100 to 1000 nM.
